# Measurements: patent US20170224852A1, “BENZAZEPIN-1-OL-DERIVED PET LIGANDS WITH HIGH IN VIVO NMDA SPECIFICITY” (ETH ZURICH, priority 2016, published 2017)
# Assays:
# NMDA-rich brain regions [1] = target: T1, NMDA-rich brain regions (Rattus norvegicus, UniProt P35439+Q00960); assay: PET scans of rat brain with [11C]WMS1405; type: in vivo, Wistar rats; conditions: for accumulation in rat brain (PET): i.v. tail vein, 0 to 60 min p.i., baseline
# T1 construct: from tissue; host or cells: brain of living Wistar rats (in vivo PET)
# T1 sequence (Q00960 27-1482, other chains not shown): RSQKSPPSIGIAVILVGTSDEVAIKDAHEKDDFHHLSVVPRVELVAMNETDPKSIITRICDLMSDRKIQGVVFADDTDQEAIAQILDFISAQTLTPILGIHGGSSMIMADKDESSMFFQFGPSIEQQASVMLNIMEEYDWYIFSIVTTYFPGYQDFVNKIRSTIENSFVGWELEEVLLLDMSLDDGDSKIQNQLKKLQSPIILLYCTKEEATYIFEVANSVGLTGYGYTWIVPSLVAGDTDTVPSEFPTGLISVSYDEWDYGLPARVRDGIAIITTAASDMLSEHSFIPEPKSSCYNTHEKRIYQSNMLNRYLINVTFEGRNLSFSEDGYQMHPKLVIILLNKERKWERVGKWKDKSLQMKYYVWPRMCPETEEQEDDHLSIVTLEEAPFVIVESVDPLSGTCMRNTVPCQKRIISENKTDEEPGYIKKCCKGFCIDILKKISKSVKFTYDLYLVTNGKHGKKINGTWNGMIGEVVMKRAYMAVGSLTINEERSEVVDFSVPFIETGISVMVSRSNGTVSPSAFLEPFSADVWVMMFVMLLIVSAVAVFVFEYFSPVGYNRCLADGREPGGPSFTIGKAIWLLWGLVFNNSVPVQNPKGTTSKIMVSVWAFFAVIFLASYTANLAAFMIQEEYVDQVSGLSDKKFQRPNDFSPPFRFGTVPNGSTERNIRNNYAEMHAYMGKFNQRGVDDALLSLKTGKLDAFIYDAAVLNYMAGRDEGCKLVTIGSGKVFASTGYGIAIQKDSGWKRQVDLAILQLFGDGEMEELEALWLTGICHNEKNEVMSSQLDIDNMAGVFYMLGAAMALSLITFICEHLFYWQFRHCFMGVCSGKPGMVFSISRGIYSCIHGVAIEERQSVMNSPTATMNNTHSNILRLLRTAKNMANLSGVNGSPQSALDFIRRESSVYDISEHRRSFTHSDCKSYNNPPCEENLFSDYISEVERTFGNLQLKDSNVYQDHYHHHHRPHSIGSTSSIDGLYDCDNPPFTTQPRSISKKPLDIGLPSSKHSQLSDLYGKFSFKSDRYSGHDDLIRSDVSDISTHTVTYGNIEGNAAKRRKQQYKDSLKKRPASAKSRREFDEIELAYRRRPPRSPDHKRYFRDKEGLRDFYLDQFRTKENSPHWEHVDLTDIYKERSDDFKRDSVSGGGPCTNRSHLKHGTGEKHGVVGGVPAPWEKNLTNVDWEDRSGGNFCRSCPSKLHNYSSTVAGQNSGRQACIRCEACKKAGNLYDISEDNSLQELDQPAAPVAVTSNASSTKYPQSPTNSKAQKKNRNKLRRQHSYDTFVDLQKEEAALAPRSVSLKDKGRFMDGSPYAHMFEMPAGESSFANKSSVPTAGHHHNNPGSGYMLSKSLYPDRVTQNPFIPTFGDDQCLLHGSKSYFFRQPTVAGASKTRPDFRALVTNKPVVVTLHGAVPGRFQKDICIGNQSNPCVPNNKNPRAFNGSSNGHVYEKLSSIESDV
# Description: (§1) Wistar rats (331-353 g) were under isoflurane anaesthesia (2.5-5% in oxygen/air 1/1) for all procedures and temperature and respiration were controlled with warm air and by adjusting the isoflurane dosage. A dynamic PET scan was started with a calibrated VISTA eXplore/Super Argus PET/CT scanner (Sedecal, Madrid, Sprain; axial field of view 4.8 cm) and at time zero, 32-52 MBq (0.44-0.78 nmol/kg, 250-300 μL) [^11C]NB1 were injected via a tail vein.
# GluN1/GluN2B NTD = target: T2, GluN1/GluN2B NTD (Rattus norvegicus, UniProt P35439+Q00960); assay: In vitro autoradiography of [11C]NB1 on rat brain slices; type: binding; conditions: for blocking of [11C]NB1 binding to rat brain slices: 10 μM competitor with 5.4 nM [11C]NB1
# T2 construct: horizontal rat brain slices (20 μm) of a male Wistar rat; from tissue; host or cells: rat brain slices (male Wistar rat)
# T2 sequence (Q00960 27-1482, other chains not shown): as above
# Description: After incubation, the slices were washed with HEPES/BSA for 8 min and twice with HEPES buffer for 3 min followed by two 5-second rinses with water. The dried slices were exposed for 20 min to a phosphorimager plate, read in a phosphorimager BAS5000 (Fuji, Tokyo, Japan) and analyzed with the software AIDA v. 4.5 (Raytest Isotopenmessgerate GmbH, Germany).
# signal receptor [2] = target: T3, signal receptor (Rattus norvegicus, UniProt Q9R0C9); assay: In vitro displacement of [3H](+)pentazocine from rat brain membranes; type: binding; design: from tissue; host or cells: rat brain membranes
# T3 sequence (Q9R0C9 whole entry): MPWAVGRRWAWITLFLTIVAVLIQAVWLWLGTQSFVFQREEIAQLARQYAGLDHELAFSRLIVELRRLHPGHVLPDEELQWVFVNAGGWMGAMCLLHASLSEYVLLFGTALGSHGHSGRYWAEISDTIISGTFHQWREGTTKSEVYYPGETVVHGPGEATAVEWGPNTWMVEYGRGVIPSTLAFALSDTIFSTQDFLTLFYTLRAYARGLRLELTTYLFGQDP
# Description: (§2) FIG. 4A. […] One out of three independent experiments. Triplicate incubations with standard deviations. Solid line, fit IC50 function. Upper broken line, binding of 2.9 nM [^3H](+)pentazocine alone. […] Baseline and blockade (circles) as in FIGS. 2B and 2C. Squares, co-injection of 2.5 mg/kg (+)-pentazocine.
# In vitro binding study with [^3H](+)pentazocine, a ligand for signal receptor.
# signal receptor [3] = conditions: read-out: Kd at signal receptor; Lever et al., Synapse 2006; cited from earlier work
# NMDA-rich brain regions [4] = target: T1, NMDA-rich brain regions; assay: PET scans of rat brain with [18F]WMS1410; type: in vivo, Wister rat
# Description: as §1
# Similar PET experimental procedure as mentioned above for [^11C]WMS1405 was applied for imaging [^18F]WMS1410 with Wister rat.
# [5] = tested on: GluN2B(C,D)-containing NMDA receptors; assay: PET receptor occupancy after eliprodil administration at various doses; type: in vivo, rat
# [6] = Garrigou-Cadenne et al. 1995; cited from earlier work
# signal receptor [7] = target: T3, signal receptor; conditions: co-injection; (+)-pentazocine 2.5 mg/kg, haloperidol 0.13 mg/kg
# Description: as §2
compound,measurement,setting,value
"[11CH3]Oc1ccc2c(c1)CCN(CCCCc1ccccc1)CC2O (single isomer, unassigned; stereoisomer b) [Stereoisomer B(+)]",accumulation in rat brain (PET),NMDA-rich brain regions [1],accumulates more than the racemate
C[C@H](NC(c1cccc2[nH]c(=O)c(=O)[nH]c12)P(=O)(O)O)c1ccc(Br)cc1 (stereo partly shown) [AAM077],blocking of [11C]NB1 binding to rat brain slices,GluN1/GluN2B NTD,not
COc1ccc2c(c1)CCN(CCCCc1ccccc1)CC2O (stereo not shown) [WMS1405],Ki,"signal receptor [2]; 2.9 nM [3H](+)pentazocine, rat brain membranes",1 to 10 µM
same,competition for the binding of (+)pentazocine to signal receptor,signal receptor [2]; in vitro,does not compete
CC(C)=CCN1CC[C@]2(C)c3cc(O)ccc3C[C@H]1[C@H]2C [[^3H](+)pentazocine],Kd,signal receptor [3],0.0016 µM
[11CH3]Oc1ccc2c(c1)CCN(CCCCc1ccccc1)CC2O (stereo not shown) [[^11C]WMS1405],binding to rat brain slices by in vitro autoradiography,"GluN1/GluN2B NTD; 5.4 nM tracer, 30 min, room temperature, baseline",high binding in most brain regions
same,accumulation in rat brain (PET),NMDA-rich brain regions [1],accumulates in NMDA-rich brain regions
OC1CN(CCCCc2ccccc2)CCc2cc(OCC[18F])ccc21 (stereo not shown) [[^18F]WMS1410],accumulation in rat brain (PET),NMDA-rich brain regions [4]; baseline,accumulates in NMDA-rich brain regions
OC(CN1CCC(Cc2ccc(F)cc2)CC1)c1ccc(Cl)cc1 (stereo not shown) [eliprodil],blocking of [11C]NB1 binding to rat brain slices,GluN1/GluN2B NTD,blocked
same,blockade and displacement of [11C]WMS1405 in rat brain (PET),"NMDA-rich brain regions [1]; eliprodil 1 mg/kg, displacement 20 min after tracer injection",blocked and displaced
same,blockade of [18F]WMS1410 in rat brain (PET),NMDA-rich brain regions [4]; eliprodil 1 mg/kg co-injection,blocked
same,receptor occupancy,[5]; at 70 μg/kg,99%
same,dose for 50% receptor occupancy,[5]; brain stem (GluN2B-poor but GluN2D-rich),7.7 nmol/kg
same,dose for 50% receptor occupancy,[5]; midbrain (GluN2B-poor but GluN2D-rich),6.2 nmol/kg
same,brain/plasma ratio,[6],about 20
CC(C)=CCN1CCC2(C)c3cc(O)ccc3CC1C2C (stereo not shown) [pentazocine],reduction of [11C]WMS1405 binding in vivo,signal receptor [7],reduced [^11C]WMS1405 binding to similar levels as under blocking conditions with eliprodil
